According to ChEMBL document CHEMBL5120855, “Potent 2,3-dihydrophthalazine-1,4-dione derivatives as dual inhibitors for mono-ADP-ribosyltransferases PARP10 and PARP15” (Eur J Med Chem, 2022):

Legend:
[1] = target: T1, Protein mono-ADP-ribosyltransferase PARP10 (Homo sapiens, UniProt Q53GL7); test: Inhibition of human PARP-10 using NAD+ as substrate incubated for 10 mins by fluorescence based analysis
T1 sequence (Q53GL7 whole entry): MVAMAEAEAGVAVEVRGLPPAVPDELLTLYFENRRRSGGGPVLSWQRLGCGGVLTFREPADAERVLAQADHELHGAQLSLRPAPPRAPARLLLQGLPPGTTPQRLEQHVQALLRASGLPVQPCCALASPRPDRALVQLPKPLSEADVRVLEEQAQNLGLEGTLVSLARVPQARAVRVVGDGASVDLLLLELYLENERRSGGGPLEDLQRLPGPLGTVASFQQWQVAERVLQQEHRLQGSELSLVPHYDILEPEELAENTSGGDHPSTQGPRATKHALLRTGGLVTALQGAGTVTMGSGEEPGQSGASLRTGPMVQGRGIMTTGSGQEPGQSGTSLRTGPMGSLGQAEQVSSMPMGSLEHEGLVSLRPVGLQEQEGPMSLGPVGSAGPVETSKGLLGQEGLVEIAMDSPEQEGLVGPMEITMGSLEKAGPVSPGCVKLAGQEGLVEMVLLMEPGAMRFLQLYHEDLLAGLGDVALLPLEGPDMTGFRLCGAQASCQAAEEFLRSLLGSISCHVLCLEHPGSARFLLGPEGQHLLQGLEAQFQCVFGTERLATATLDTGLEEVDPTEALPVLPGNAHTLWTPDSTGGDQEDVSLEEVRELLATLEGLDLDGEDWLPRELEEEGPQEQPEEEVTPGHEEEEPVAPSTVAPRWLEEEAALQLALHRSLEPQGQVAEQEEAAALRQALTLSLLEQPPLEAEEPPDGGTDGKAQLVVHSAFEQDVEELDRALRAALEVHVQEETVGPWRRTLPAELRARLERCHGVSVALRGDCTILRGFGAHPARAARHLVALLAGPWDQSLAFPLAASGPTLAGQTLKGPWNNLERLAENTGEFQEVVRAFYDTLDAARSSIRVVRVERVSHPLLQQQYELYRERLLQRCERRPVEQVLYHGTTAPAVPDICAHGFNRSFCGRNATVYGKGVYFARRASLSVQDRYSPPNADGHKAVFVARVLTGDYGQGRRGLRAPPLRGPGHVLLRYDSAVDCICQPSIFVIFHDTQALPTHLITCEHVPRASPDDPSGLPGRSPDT

[2] = target: Protein mono-ADP-ribosyltransferase PARP4 (Homo sapiens, UniProt Q9UKK3); test: Inhibition of human PARP4
Sequence of Protein mono-ADP-ribosyltransferase PARP4 (Q9UKK3 whole entry): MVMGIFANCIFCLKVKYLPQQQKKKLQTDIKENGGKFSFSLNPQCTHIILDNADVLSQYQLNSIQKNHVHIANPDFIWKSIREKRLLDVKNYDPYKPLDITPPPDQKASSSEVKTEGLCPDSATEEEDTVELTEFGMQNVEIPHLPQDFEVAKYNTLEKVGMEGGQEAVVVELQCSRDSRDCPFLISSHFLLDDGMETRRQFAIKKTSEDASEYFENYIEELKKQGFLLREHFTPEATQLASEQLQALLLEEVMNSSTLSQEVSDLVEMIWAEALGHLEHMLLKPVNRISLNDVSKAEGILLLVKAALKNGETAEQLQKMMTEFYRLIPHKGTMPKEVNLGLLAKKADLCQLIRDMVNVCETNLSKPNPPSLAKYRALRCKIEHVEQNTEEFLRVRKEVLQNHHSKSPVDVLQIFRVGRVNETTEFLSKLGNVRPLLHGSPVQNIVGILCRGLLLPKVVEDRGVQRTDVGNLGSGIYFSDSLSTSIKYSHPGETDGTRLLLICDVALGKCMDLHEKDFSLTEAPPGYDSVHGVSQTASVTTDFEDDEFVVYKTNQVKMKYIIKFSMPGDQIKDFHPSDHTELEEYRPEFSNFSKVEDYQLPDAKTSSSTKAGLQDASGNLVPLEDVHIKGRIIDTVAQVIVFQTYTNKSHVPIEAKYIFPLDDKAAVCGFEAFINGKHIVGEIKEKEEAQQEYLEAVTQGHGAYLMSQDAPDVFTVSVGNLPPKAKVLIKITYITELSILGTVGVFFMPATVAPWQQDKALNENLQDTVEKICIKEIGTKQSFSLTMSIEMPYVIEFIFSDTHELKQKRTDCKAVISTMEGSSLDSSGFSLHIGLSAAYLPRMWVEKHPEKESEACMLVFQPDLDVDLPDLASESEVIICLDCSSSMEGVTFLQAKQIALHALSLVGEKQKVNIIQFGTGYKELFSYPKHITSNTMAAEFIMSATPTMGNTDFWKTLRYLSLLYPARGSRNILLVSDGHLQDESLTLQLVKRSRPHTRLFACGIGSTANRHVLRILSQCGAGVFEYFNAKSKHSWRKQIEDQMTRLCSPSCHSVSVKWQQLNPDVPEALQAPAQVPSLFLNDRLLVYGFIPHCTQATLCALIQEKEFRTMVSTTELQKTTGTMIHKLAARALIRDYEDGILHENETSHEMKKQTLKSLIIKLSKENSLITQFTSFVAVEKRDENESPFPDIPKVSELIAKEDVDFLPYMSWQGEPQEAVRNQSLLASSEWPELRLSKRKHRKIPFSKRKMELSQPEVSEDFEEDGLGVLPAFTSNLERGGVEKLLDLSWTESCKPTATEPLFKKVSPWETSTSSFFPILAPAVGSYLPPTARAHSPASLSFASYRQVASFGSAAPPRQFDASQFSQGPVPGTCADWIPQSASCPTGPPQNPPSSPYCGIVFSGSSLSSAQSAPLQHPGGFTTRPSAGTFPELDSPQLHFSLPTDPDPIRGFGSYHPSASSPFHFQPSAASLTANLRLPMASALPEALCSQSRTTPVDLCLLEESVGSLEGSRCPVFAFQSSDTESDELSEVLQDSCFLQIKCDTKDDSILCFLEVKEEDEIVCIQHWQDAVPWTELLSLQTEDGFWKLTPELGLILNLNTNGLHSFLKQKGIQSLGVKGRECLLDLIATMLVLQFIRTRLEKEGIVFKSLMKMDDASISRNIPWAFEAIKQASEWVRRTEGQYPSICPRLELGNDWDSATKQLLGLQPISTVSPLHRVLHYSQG

Q: With `NC(=O)c1ccc(OCC2CCC2)cc1` as the molecule, how does the IC50 [1] read?
A: 290 nM

Q: And the IC50 [2]?
A: > 100000 nM
